Measured values from patent US20070238785A1, “Use of an anti-atherothrombotic compound in obtaining medicaments intended for the treatment of vascular disorders” (priority 2006, published 2007).
Structures can show the parent of a compound that is named as a salt.

Tests used:
sodium-loaded SHR-SP rat [1] = assay: survival study in sodium-loaded SHR-SP rat; type: in vivo; conditions: 30 mg/kg/day in food, 1% NaCl in drinking water, from 10 weeks of age; Carrier group 57 days
Description: (§1) 10-week old male SHR-SP rats (Charles River) being given 1% NaCl in their drinking water were separated into two groups in random manner and were treated, or not, with the sodium salt of the (R) isomer of the compound of formula (I) (30 mg/kg/day) incorporated in their food.
In a first study, the survival of each group was determined by calculating the percentage of animals alive each day after the start of treatment.
(§2) The results are reported as the mean±S.E.M. Differences are considered significant when P<0.05 after a Student's t test. The survival of the animals is represented on a Kaplan-Meier graph and the results are considered significant when P<0.05 after a log-rank test.

carotid thrombosis = assay: models of carotid thrombosis in vivo and ex vivo (occlusion time); conditions: carotid thrombosis: vascular electrolysis (dog), mechanical lesion (guinea pig), electric stimulation (rat), ex vivo carotid-carotid arterial bypass by glass capillary
atherosclerotic lesion = assay: experimental models of anti-proliferative, anti-atheromatous and anti-inflammatory effects; type: in vivo
thrombus = assay: ex vivo anti-thrombotic activity, perfusion chamber model, in patients at high risk of ischaemic CVA
Description: In this study, the sodium salt of the (R) isomer of the compound of formula (I) also has an effect on the measured markers of inflammation (sVCAM, sPAI-1, sP-selectin, thrombomodulin).

radial artery = assay: peripheral vasomotor response, provoked hyperaemia test in atheromatous patients; type: in vivo; conditions: versus placebo, patients treated with aspirin; whatever the dose, single or repeated administration (15 days), about 2 hours after administration
Description: This superiority is observed whatever the dose, after single administration or repeated administration (15 days), the vasodilatory effect being evaluated about 2 hours after administration of the medicament.

sodium-loaded SHR-SP rat [2] = assay: 5-week study in sodium-loaded SHR-SP rat (cardiac hypertrophy, urinary 8-OH-dG, plasma thiostatin); type: in vivo; conditions: 30 mg/kg/day in food, 5 weeks, compared to Carrier group
Description: as §1
In a second study, the rats were monitored over 5 weeks, between 10 and 15 weeks of age, and were then sacrificed in order to quantify a urinary marker of oxidative stress (8-OH-dG) and a plasma marker reflecting acute inflammation (thiostatin, which in the rat is the equivalent of CRP) and in order to determine cardiac hypertrophy.
During the last 24 hours of monitoring, the animals were placed in individual metabolic cages and the urines were collected in sterile tubes (200 μl of 2 mM EDTA). Diuresis was measured and the production of 8-hydroxy-2′-deoxyguanosine (8-OH-dG) was quantified by ELISA assay (Oxis, Bioxytech).
The rats were anaesthetised by intraperitoneal injection of pentobarbital sodium (50 mg/kg, Ceva laboratories). Blood was sampled from the carotid artery (sampling into heparin 5000 IU/ml) in order to measure thiostatin production by ELISA assay (Life Diagnostics). The heart was excised, dried and weighed, and cardiac hypertrophy was determined by dividing the weight of the dry heart by the body weight for each animal in order to standardise the measurement.
as §2

[3] = after 10 days of administration, compared with aspirin

Cc1ccc2c(c1CCC(=O)O)CCC(NS(=O)(=O)c1ccc(Cl)cc1)C2 [sodium salt of the (R) isomer of the compound of formula (I), 3-{6-[(4-chlorophenylsulphonyl)amino]-2-methyl-5,6,7,8-tetrahydro-naphth-1-yl}propionic acid]
time after which half the rats were dead (survival) (sodium-loaded SHR-SP rat [1]): 99 days | occlusion time (carotid thrombosis): lengthens the occlusion time in dose-dependent manner | expression of adhesion molecules and markers such as endothelin, ICAM and VCAM (atherosclerotic lesion): inhibits | infiltration of macrophages into the vascular wall (atherosclerotic lesion): inhibits | intima/media ratio (atherosclerotic lesion): significantly reduces | serum cholesterol (atherosclerotic lesion): without reducing | surface area of the atherosclerotic lesion (atherosclerotic lesion): significantly reduces | thickness of the vascular wall (atherosclerotic lesion): significantly reduces | % adhesion (thrombus; [3]): superiority | dense surface area of the thrombus (thrombus; [3]): superiority | total surface area of the thrombus (thrombus; [3]): superiority | measured markers of inflammation (sVCAM, sPAI-1, sP-selectin, thrombomodulin) (thrombus; patients at high risk of ischaemic CVA): has an effect | endothelium-dependent vasodilation (radial artery): superiority | cardiac hypertrophy (dry heart weight / body weight) (sodium-loaded SHR-SP rat [2]): less marked | plasma thiostatin (acute inflammation) (sodium-loaded SHR-SP rat [2]): lower | total amount of 8-OH-dG in urines over 24 hours (oxidative stress) (sodium-loaded SHR-SP rat [2]): reduced
